The text below walks through data of US12226424B2, “Target protein degradation compounds, their anti-tumor use, their intermediates and use of intermediates” (ShanghaiTech University, priority 2018, dated 2025).

For the first experiment, the system named is CDK4/6 protein. The experiment in a line: Western-blot determination of CDK4/6 protein degradation (DC50) in T-47D cells. It counts as cell-based, human. As to conditions: 24 h drug treatment, read-out: DC50(nM)/T-47D cell line.
As for `Cc1nc2c(F)cc(-c3nc(Nc4ccc(CN5CCN(C(=O)CCCCCCSc6cccc7c6CN(C6CCC(=O)NC6=O)C7=O)CC5)cn4)ncc3F)cc2n1C(C)C` (centres unmarked) [SIAIS262169, 3-(4-((7-(4-((6-((5-fluoro-4-(4-fluoro-1-isopropyl-2-methyl-1H-benzo[d]imidazol-6-yl)pyrimidin-2-yl)amino)pyridin-3-yl)methyl)piperazin-1-yl)-7-oxoheptyl)thio)-1-oxoisoindolin-2-yl)piperidine-2,6-dione], the DC50 was 5 nM.

`Cc1nc2c(F)cc(-c3nc(Nc4ccc(CN5CCN(C(=O)CCCCCCCCCCSc6cccc7c6CN(C6CCC(=O)NC6=O)C7=O)CC5)cn4)ncc3F)cc2n1C(C)C` (centres unmarked) [SIAIS262170, 3-(4-((11-(4-((6-((5-fluoro-4-(4-fluoro-1-isopropyl-2-methyl-1H-benzo[d]imidazol-6-yl)pyrimidin-2-yl)amino)pyridin-3-yl)methyl)piperazin-1-yl)-11-oxoundecyl)thio)-1-oxoisoindolin-2-yl)piperidine-2,6-dione]: the DC50 was determined as 50 nM.

Take `Cc1nc2c(F)cc(-c3nc(Nc4ccc(CN5CCN(C(=O)COCCSc6cccc7c6CN(C6CCC(=O)NC6=O)C7=O)CC5)cn4)ncc3F)cc2n1C(C)C` (centres unmarked) [SIAIS262171, 3-(4-((2-(2-(4-((6-((5-fluoro-4-(4-fluoro-1-isopropyl-2-methyl-1H-benzo[d]imidazol-6-yl)pyrimidin-2-yl)amino)pyridin-3-yl)methyl)piperazin-1-yl)-2-oxoethoxy)ethyl)thio)-1-oxoisoindolin-2-yl)piperidine-2,6-dione]: the DC50 amounted to 0.5 nM.

In the case of `Cc1nc2c(F)cc(-c3nc(Nc4ccc(CN5CCN(CCCCCCSc6cccc7c6CN(C6CCC(=O)NC6=O)C7=O)CC5)cn4)ncc3F)cc2n1C(C)C` (centres unmarked) [SIAIS262173, 3-(4-((6-(4-((6-((5-fluoro-4-(4-fluoro-1-isopropyl-2-methyl-1H-benzo[d]imidazol-6-yl)pyrimidin-2-yl)amino)pyridin-3-yl)methyl)piperazin-1-yl)hexyl)thio)-1-oxoisoindolin-2-yl)piperidine-2,6-dione], the DC50 was in the range of 0.05 to 0.5 nM.

The subject of a further experiment is K562 cells (BCR-ABL positive). The experiment in a line: Half inhibitory concentration (IC50) on tumor cells, CCK-8, K562. The following applies: Homo sapiens, K562, 48 h, read-out: IC50 (nM)/K562 cell line.
Take `COc1cc(Nc2c(C#N)cnc3cc(OCCCN4CCN(C(=O)CCCSc5cccc6c5C(=O)N(C5CCC(=O)NC5=O)C6=O)CC4)c(OC)cc23)c(Cl)cc1Cl` (centres unmarked) [SIAIS151170, 4-((2,4-dichloro-5-methoxyphenyl)amino)-7-(3-(4-(4-((2-(2,6-dioxopiperidin-3-yl)-1,3-dioxoisoindolin-4-yl)thio)butanoyl)piperazin-1-yl)propoxy)-6-methoxyquinoline-3-carbonitrile]: the IC50 was 400 nM.

`COc1cc(Nc2c(C#N)cnc3cc(OCCCN4CCN(C(=O)CCCCSc5cccc6c5C(=O)N(C5CCC(=O)NC5=O)C6=O)CC4)c(OC)cc23)c(Cl)cc1Cl` (centres unmarked) [SIAIS151171, 4-((2,4-dichloro-5-methoxyphenyl)amino)-7-(3-(4-(5-((2-(2,6-dioxopiperidin-3-yl)-1,3-dioxoisoindolin-4-yl)thio)pentanoyl)piperazin-1-yl)propoxy)-6-methoxyquinoline-3-carbonitrile]: the IC50 came out at 1540 nM.

For the compound `COc1cc(Nc2c(C#N)cnc3cc(OCCCN4CCN(C(=O)CCCCCSc5cccc6c5C(=O)N(C5CCC(=O)NC5=O)C6=O)CC4)c(OC)cc23)c(Cl)cc1Cl` (centres unmarked) [SIAIS151172, 4-((2,4-dichloro-5-methoxyphenyl)amino)-7-(3-(4-(6-((2-(2,6-dioxopiperidin-3-yl)-1,3-dioxoisoindolin-4-yl)thio)hexanoyl)piperazin-1-yl)propoxy)-6-methoxyquinoline-3-carbonitrile], the IC50 is 1370 nM.

Regarding `COc1cc(Nc2c(C#N)cnc3cc(OCCCN4CCN(C(=O)CCCCCCSc5cccc6c5C(=O)N(C5CCC(=O)NC5=O)C6=O)CC4)c(OC)cc23)c(Cl)cc1Cl` (centres unmarked) [SIAIS151173, 4-((2,4-dichloro-5-methoxyphenyl)amino)-7-(3-(4-(7-((2-(2,6-dioxopiperidin-3-yl)-1,3-dioxoisoindolin-4-yl)thio)heptanoyl)piperazin-1-yl)propoxy)-6-methoxyquinoline-3-carbonitrile], the IC50 is 8260 nM.

For the compound `Cc1nc(Nc2ncc(C(=O)Nc3c(C)cccc3Cl)s2)cc(N2CCN(CCCSc3cccc4c3CN(C3CCC(=O)NC3=O)C4=O)CC2)n1` (centres unmarked) [SIAIS171181, N-(2-chloro-6-methylphenyl)-2-((6-(4-(3-((2-(2,6-dioxopiperidin-3-yl)-1-oxoisoindolin-4-yl)thio)propyl)piperazin-1-yl)-2-methylpyrimidin-4-yl)amino)thiazole-5-carboxamide], the IC50 came to 0.09 nM.

As to `Cc1ccc(C(=O)Nc2ccc(CN3CCN(C(=O)CCSc4cccc5c4C(=O)N(C4CCC(=O)NC4=O)C5=O)CC3)c(C(F)(F)F)c2)cc1C#Cc1cnc2cccnn12` (centres unmarked) [SIAIS220046, N-(4-((4-(3-((2-(2,6-dioxopiperidin-3-yl)-1,3-dioxoisoindolin-4-yl)thio)propanoyl)piperazin-1-yl)methyl)-3-(trifluoromethyl)phenyl)-3-(imidazo[1,2-b]pyridazin-3-ylethynyl)-4-methylbenzamide], the IC50 amounted to 2.97 nM.

For the compound `Cc1ccc(C(=O)Nc2ccc(CN3CCN(C(=O)CCCSc4cccc5c4C(=O)N(C4CCC(=O)NC4=O)C5=O)CC3)c(C(F)(F)F)c2)cc1C#Cc1cnc2cccnn12` (centres unmarked) [SIAIS220047, N-(4-((4-(4-((2-(2,6-dioxopiperidin-3-yl)-1,3-dioxoisoindolin-4-yl)thio)butanoyl)piperazin-1-yl)methyl)-3-(trifluoromethyl)phenyl)-3-(imidazo[1,2-b]pyridazin-3-ylethynyl)-4-methylbenzamide], the IC50 worked out at 3.23 nM.

For the compound `Cc1ccc(C(=O)Nc2ccc(CN3CCN(C(=O)CCCCSc4cccc5c4C(=O)N(C4CCC(=O)NC4=O)C5=O)CC3)c(C(F)(F)F)c2)cc1C#Cc1cnc2cccnn12` (centres unmarked) [SIAIS220048, N-(4-((4-(5-((2-(2,6-dioxopiperidin-3-yl)-1,3-dioxoisoindolin-4-yl)thio)pentanoyl)piperazin-1-yl)methyl)-3-(trifluoromethyl)phenyl)-3-(imidazo[1,2-b]pyridazin-3-ylethynyl)-4-methylbenzamide], the IC50 was found to be 4.06 nM.

`Cc1ccc(C(=O)Nc2ccc(CN3CCN(C(=O)CCCCCSc4cccc5c4C(=O)N(C4CCC(=O)NC4=O)C5=O)CC3)c(C(F)(F)F)c2)cc1C#Cc1cnc2cccnn12` (centres unmarked) [SIAIS220049, N-(4-((4-(6-((2-(2,6-dioxopiperidin-3-yl)-1,3-dioxoisoindolin-4-yl)thio)hexanoyl)piperazin-1-yl)methyl)-3-(trifluoromethyl)phenyl)-3-(imidazo[1,2-b]pyridazin-3-ylethynyl)-4-methylbenzamide]: the IC50 was found to be 5.75 nM.

As to `Cc1ccc(C(=O)Nc2ccc(CN3CCN(C(=O)CCCCCCSc4cccc5c4C(=O)N(C4CCC(=O)NC4=O)C5=O)CC3)c(C(F)(F)F)c2)cc1C#Cc1cnc2cccnn12` (centres unmarked) [SIAIS220050, N-(4-((4-(7-((2-(2,6-dioxopiperidin-3-yl)-1,3-dioxoisoindolin-4-yl)thio)heptanoyl)piperazin-1-yl)methyl)-3-(trifluoromethyl)phenyl)-3-(imidazo[1,2-b]pyridazin-3-ylethynyl)-4-methylbenzamide], the IC50 was found to be 12.8 nM.

As to `Cc1ccc(C(=O)Nc2ccc(CN3CCN(C(=O)CSc4cccc5c4CN(C4CCC(=O)NC4=O)C5=O)CC3)c(C(F)(F)F)c2)cc1C#Cc1cnc2cccnn12` (centres unmarked) [SIAIS220051, N-(4-((4-(2-((2-(2,6-dioxopiperidin-3-yl)-1-oxoisoindolin-4-yl)thio)acetyl)piperazin-1-yl)methyl)-3-(trifluoromethyl)phenyl)-3-(imidazo[1,2-b]pyridazin-3-ylethynyl)-4-methylbenzamide], the IC50 is 1.78 nM.

On to `Cc1ccc(C(=O)Nc2ccc(CN3CCN(C(=O)CCSc4cccc5c4CN(C4CCC(=O)NC4=O)C5=O)CC3)c(C(F)(F)F)c2)cc1C#Cc1cnc2cccnn12` (centres unmarked) [SIAIS220052, N-(4-((4-(3-((2-(2,6-dioxopiperidin-3-yl)-1-oxoisoindolin-4-yl)thio)propanoyl)piperazin-1-yl)methyl)-3-(trifluoromethyl)phenyl)-3-(imidazo[1,2-b]pyridazin-3-ylethynyl)-4-methylbenzamide], for which the IC50 is 2.62 nM.

For `Cc1ccc(C(=O)Nc2ccc(CN3CCN(C(=O)CCCSc4cccc5c4CN(C4CCC(=O)NC4=O)C5=O)CC3)c(C(F)(F)F)c2)cc1C#Cc1cnc2cccnn12` (centres unmarked) [SIAIS220053, N-(4-((4-(4-((2-(2,6-dioxopiperidin-3-yl)-1-oxoisoindolin-4-yl)thio)butanoyl)piperazin-1-yl)methyl)-3-(trifluoromethyl)phenyl)-3-(imidazo[1,2-b]pyridazin-3-ylethynyl)-4-methylbenzamide], the IC50 amounted to 4.06 nM.

As for `Cc1ccc(C(=O)Nc2ccc(CN3CCN(C(=O)CCCCSc4cccc5c4CN(C4CCC(=O)NC4=O)C5=O)CC3)c(C(F)(F)F)c2)cc1C#Cc1cnc2cccnn12` (centres unmarked) [SIAIS220054, N-(4-((4-(5-((2-(2,6-dioxopiperidin-3-yl)-1-oxoisoindolin-4-yl)thio)pentanoyl)piperazin-1-yl)methyl)-3-(trifluoromethyl)phenyl)-3-(imidazo[1,2-b]pyridazin-3-ylethynyl)-4-methylbenzamide], the IC50 is 2.68 nM.

On to `Cc1ccc(C(=O)Nc2ccc(CN3CCN(C(=O)CCCCCSc4cccc5c4CN(C4CCC(=O)NC4=O)C5=O)CC3)c(C(F)(F)F)c2)cc1C#Cc1cnc2cccnn12` (centres unmarked) [SIAIS220055, N-(4-((4-(6-((2-(2,6-dioxopiperidin-3-yl)-1-oxoisoindolin-4-yl)thio)hexanoyl)piperazin-1-yl)methyl)-3-(trifluoromethyl)phenyl)-3-(imidazo[1,2-b]pyridazin-3-ylethynyl)-4-methylbenzamide], for which the IC50 turned out to be 5.58 nM.

On to `Cc1ccc(C(=O)Nc2ccc(CN3CCN(C(=O)CCCCCCSc4cccc5c4CN(C4CCC(=O)NC4=O)C5=O)CC3)c(C(F)(F)F)c2)cc1C#Cc1cnc2cccnn12` (centres unmarked) [SIAIS220056, N-(4-((4-(7-((2-(2,6-dioxopiperidin-3-yl)-1-oxoisoindolin-4-yl)thio)heptanoyl)piperazin-1-yl)methyl)-3-(trifluoromethyl)phenyl)-3-(imidazo[1,2-b]pyridazin-3-ylethynyl)-4-methylbenzamide], for which the IC50 came out at 5.98 nM.
